# According to patent US20090004145A1, “COMPOSITIONS AND METHODS INVOLVING GENE THERAPY AND PROTEASOME MODULATION” (priority 2006, published 2009):
# Where a SMILES comes first, the peptide text is derived from it. The star is where a group is joined. Cbz = O=C(OCc1ccccc1)*
# Key:
# Assay type in all cases: cell-based, human
# [1] = system: p53, pJNK, p38MAPK, p44/42MAPK in 2008 cells; assay: Western blotting of endogenous ubiquitinated proteins; settings: 24 h
# Protocol: FIG. 16. Expression of endogenous ubiquitinated proteins is increased in MG132-treated CDDP-sensitive tumor cells but not in CDDP-resistant tumor cells. CDDP-resistant (2008/C*13 R) and sensitive (2008) ovarian tumor cells were plated in six-well plates. At 24 h after plating cells were treated with PBS or MG132. At 24 h after treatment cells were harvested, lysates prepared and subjected to western blotting. Primary antibodies used were anti-human p53, anti-human pJNK, antihuman-p38MAPK and anti-human p44/42MAPK antibody. […] Beta-actin was used as internal loading control.
# FIG. 19. SiRNA-mediated inhibition of Beta-5 subunit expression of the 20S proteasome in CDDP-sensitive tumor cells results in increased endogenous protein expression. CDDP-sensitive (2008) ovarian tumor cells were plated in six-well plates. At 24 h after plating cells were treated with PBS, control SiRNA, or beta-5 specific SiRNAs (100 nM). At 48 h after treatment cells were harvested, lysates prepared and subjected to western blotting. Primary antibodies used were anti-human beta-5 antibody, anti-human p53 antibody and anti-human pJNK antibody. […] Beta-actin was used as internal loading control.
# Expression of Endogenous Ubiquitinated Proteins is Increased in MG132-Treated CDDP-Sensitive Tumor Cells but not in CDDP-Resistant Tumor Cells. […]
# [2] = system: proteasome activity in 2008/C*13 R cells; assay: Proteasome activity assay (commercially available kit) on cell lysates; settings: 48 h
# [3] = system: total ubiquitinated proteins in 2008 cells; assay: Western blotting of total ubiquitinated proteins; settings: 24 h
# Protocol: (§1) FIG. 9. CDDP-resistant tumor cells have more endogenous ubiquitinated proteins. CDDP-resistant (2008/C*13 R) and sensitive (2008) ovarian tumor cells were plated in six-well plates and were untreated or treated with MG132. Cells were harvested 24 h after treatment, total cell lysate prepared and subjected to western blotting. Membrane was probed with human anti-ubiquitinated antibody.
# as §1, with “CDDP-Resistant Tumor Cells Have More Endogenous Ubiquitinated Proteins.” for “FIG. 9. CDDP-resistant tumor cells have more endogenous ubiquitinated proteins.”, “antibody. […] (FIG. 9)” for “antibody.”
structure (smiles),measurement,setting,value
CC(C)C[C@@H](C=O)NC(=O)[C@H](CC(C)C)NC(=O)[C@H](CC(C)C)NC(=O)OCc1ccccc1 [MG132] (Cbz-Leu-Leu-Leu-aldehyde),"expression of p53, pJNK, p38MAPK, p44/42MAPK",[1],increased expression
same,inhibition of proteasome activity,[2]; FIG. 11A (Ad-mda7 experiment),20%
same,inhibition of proteasome activity,[2]; FIG. 11B (Ad-p53 experiment),20%
same,total ubiquitinated protein levels,[3],greatly increased
